Source: publication PMC3652196, “Pharmacometrics of 3-Methoxypterostilbene: A Component of Traditional Chinese Medicinal Plants” (Evidence-based Complementary and Alternative Medicine : eCAM, 2013)

Columns and labels:
[1] = humans; cited from earlier work
[2] = test system: α-glucosidase from Saccharomyces cerevisiae; assay: α-Glucosidase inhibition colorimetric assay (PNPG); assay type: biochemical; details: 0 to 200 μg/mL, n = 6

## Oc1ccc(/C=C/c2cc(O)cc(O)c2)cc1 [resveratrol]
[1]
  bioavailability: < 1%
[2]
  α-Glucosidase inhibition (in words): clear positive concentration-dependent inhibition relationship
